Paper PMC11370402 (bioRxiv, 2024)

Test system: human tracheobronchial epithelial cells (hTECs) basal-ESC growth
Assay: hTEC growth in submerged 2D culture
Format: cell-based

Q: For `O=c1ncn2nc(Sc3ccc(F)cc3F)ccc2c1-c1c(Cl)cccc1Cl` [NuP-401, VX-745], which “effect on basal cell growth” value is on record?
A: The value was “not found”.
